Where two headings read alike, the source gives them in different places.
Legend:
[1] = Acute toxicity, 50% lethal dose (LD50), oral administration, mice; details: mouse, in vivo, Swiss mice of the CDl strain, both sexes, calculated graphically
Experimental: The tests were carried out on Swiss mice of the CDl strain, of both sexes, and the 50% lethal doses (LD50) were calculated graphically.

[2] = system: pain induced in CDl mice by the intraperitoneal injection of acetic acid; assay: Koster test: analgesic effect against pain induced by intraperitoneal injection of acetic acid, oral administration; type: in vivo; details: Mus musculus, read-out: Analgesic activity, Koster test ED50 (50% effective dose)
Text: The analgesic effect was investigated in accordance with two conventional experimental procedures.

[3] = oral administration, CDl mice, acetic acid i.p.

| SMILES | LD50 [1] | ED50 [2, 3] | ED50 ([2]; po) |
| --- | --- | --- | --- |
| CCCC(CCC)C(=O)OCCN1CCN(c2cccc(C(F)(F)F)c2)CC1 [SLB 198, 2-(4-m-Trifluoromethylphenyl-piperazino)-ethyl 2-n-propyl-pentanoate] | 2200 mg/kg | 4.3 mg/kg |  |
| O=C(OCCN1CCN(c2cccc(C(F)(F)F)c2)CC1)c1ccccc1 [SLB 108, 2-(4-m-Trifluoromethylphenylpiperazino)-ethyl benzoate] | > 4000 mg/kg |  | 10 mg/kg |
| CC(=O)OCCN1CCN(c2cccc(C(F)(F)F)c2)CC1 [SLB 093, 2-(4-m-Trifluoromethylphenylpiperazino)-ethyl acetate] | 925 mg/kg | 3.5 mg/kg |  |
| Cc1c(N(C)C)c(=O)n(-c2ccccc2)n1C [Amidopyrine, reference compound] |  | 40 mg/kg |  |
| COc1cc(C(=O)OCCN2CCN(c3cccc(C(F)(F)F)c3)CC2)cc(OC)c1OC [SLB 169, 2-(4-m-Trifluoromethylphenylpiperazino)-ethyl 3,4,5-trimethoxybenzoate] | 2200 mg/kg | 15 mg/kg |  |
